Data published in patent US7666619B2, “Compounds and methods for regulating bacterial growth and pathogenesis” (Princeton University, priority 2000, dated 2010).

What was measured:
[1] = tested on: MM32 indicator strain (LuxS−, LuxN−) of V. harveyi; test: MM32 bioluminescence assay; assay type: cell-based, Vibrio harveyi; details: various doses, 6-hour incubation
Description: The MM32 indicator strain (LuxS−, LuxN−) of V. harveyi was incubated with various doses of AI-2 and the bioluminescence signal measured at various time points during a 6-hour incubation.
Exogenous synthetic autoinducer-2 was added at the outset of the assay at a final concentration of 25 μg/ml. QXP-048 was added at the outset of the assay at a final concentration of 25 μg/ml. […] Exogeneous synthetic autoinducer-2 was added at the outset of the assay to a final concentration of 25 μg/ml. QXP-048 was added at the outset of the assay at a final concentration of 25 μg/ml.
The invention provides a luxN− and luxS− strain of V. harveyi, designated MM32, for identifying inhibitors of the quorum-sensing pathway. […] Further, since MM32 cannot produce AI-2, addition of exogenous AI-2 or its analogs allows rapid identification of inhibitors of AI-2.

[2] = tested on: V. harveyi strains MM32, BB120, BB170; test: Microtiter crystal violet biofilm formation assay; assay type: cell-based, Vibrio harveyi
Description: (§1) Biofilm formation was measured using a microtiter-based assay. Free-swimming (planktonic) bacteria were cultured in AB or LB media supplemented with glucose in 96 well microtiter dishes. Biofilms typically formed along the walls of the wells at the interface of the liquid and air phase. At the end of the incubation, aliquots of a crystal violet solution (stock 0.1%) were added to the wells to stain both the adherent and the non-adherent cells. The wells were then washed with deionized water to remove non-adherent cells, and the bound crystal violet solubilized with 200 microliters of water. Absorbance reading at 600 nm (A600) were used to quantitate the amount of crystal violet dye that had adhered to the biofilms. When indicated, synthetic AI-2 was added to the wells at the beginning of the cultures.
Various amounts of synthetic AI-2 were added to the initial free-swimming bacterial cultures in LB media supplemented with glucose, and biofilm formation measured at the end of the incubation.

[3] = Characterization of AI-2 activity: acid, base and heat stability; assay type: physicochemical
SdiA = test: Effect of autoinducer on SdiA regulated gene expression (rck::MudJ fusion, β-galactosidase); assay type: cell-based; details: AI-2 from E. coli or S. typhimurium, 0.4 M NaCl osmotic shock fluids at 10% (v/v)
Source text: It was possible that the AI-2 autoinducer that we have been characterizing in S. typhimurium and E. coli acted through SdiA. […] In E. coli, we assayed an ftsQ1p2p-lacZ reporter, and in S. typhimurium we assayed an rck::MudJ fusion in both an sdiA^+ and sdiA^− background. We tested the effects of addition of LB, 0.4 M NaCl, 0.4 M NaCl osmotic shock fluids containing AI-2 activity from S. typhimurium LT2, E. coli O157, and 0.4 M NaCl osmotic shock fluid from E. coli DH5α.
For ftsQ regulation in E. coli, the plasmids pMS207 and pMS209 were transformed into E. coli strain MC4100 (Silhavy et al., 1984, supra), and the transformants were grown overnight in LB containing 100 mg/L ampicillin at 30° C. with aeration. For rck regulation, S. typhimurium strains BA1105 (rck::MudJ) and BA1305 (rck::MudJ sdiA) were grown overnight in LB containing 100 mg/L kanamycin at 30° C. with aeration. The overnight cultures were diluted 20-fold into fresh medium and grown for an additional 4.5 h. At this time, each culture was divided into five identical aliquots and 10% (v/v) of one of the following was added to each aliquot: LB, 0.4M NaCl, 0.4M osmotic shock fluids from S. typhimurium LT2, E. coli O157 or E. coli strain DH5α (negative control). The osmotic shock fluids were prepared as described above, following pre-growth of the S. typhimurium LT2 and E. coli in LB containing 0.5% glucose for 6 h. […]

[4] = tested on: Pseudomonas aeruginosa (ATCC 27853); test: Microtiter crystal violet biofilm formation assay; assay type: cell-based; details: AB media with glucose; pH-dependent
Description: as §1
The effects of AI-2 on biofilm formation were also evaluated in Pseudomonas aeruginosa (ATCC 27853)(FIG. 27). Biofilm formation by this organism is of particular interest because of the association of Pseudomonas aeruginosa biofilms with decreased lung capacity in subjects with cystic fibrosis.

## CC1=C(O)C(=O)CO1 [AI-2, 4-hydroxy-5-methyl-2h-furan-3-one]
[1]
  bioluminescence signal: induction of bioluminescence
[2]; MM32 strain, low doses, LB media with glucose
  biofilm formation: block biofilm formation
[2]; higher concentrations, all V. harveyi strains tested
  biofilm formation: stimulated biofilm formation
[2]; indicator strain BB170, low doses, LB media with glucose
  biofilm formation: increases the extent of biofilm that forms
[2]; null mutant (AI-1−/AI-2−) V. harveyi
  biofilm production after addition to the medium: allows (AI-1−/AI-2−) V. harveyi to produce biofilm
[2]; wild-type strain BB120, low doses, LB media with glucose
  biofilm formation: increases the extent of biofilm that forms
[3]
  stability of activity to acid: acid-stable
  stability of activity to base: base-labile
[3]; but not 100° C.
  temperature of heating withstood by the activity: about 80 °C
SdiA
  change in β-galactosidase production: No change
[4]
  biofilm formation: dose-dependent increase in the level of biofilm formation
